Measurements as given in patent EP0527889B1, “QUINOLIZINONE TYPE COMPOUNDS” (priority 1990, dated 1991).
Where a name gives a salt, the structure may show the parent alone.

What was measured:
[1] = system: Staphylococcus aureus NCTC 10649; experiment: In vivo antibacterial activity in mice (protection from lethal intraperitoneal infection); conditions: NCTC10649, 144 h, S. aureus, CF-1 female mice infected intraperitoneally with 100 times the LD50, treated at 1 and 5 hr after infection, cumulative mortalities on the sixth day
Experimental: (§1) The in vivo antibacterial activity of the compounds of the present invention was determined as follows: Aqueous solutions of the test compounds were prepared by dissolving the compound in distilled water, except for the compounds of examples 169 and 170 which were dissolved in a solution of 2% DMSO in distilled water.
(§2) After 18 hr incubation, a culture of Staphylococcus aureus NCTC 10649 was serially diluted by using 10-fold dilutions in 5% (w/v) hog gastric mucin. Cultures (0.5 mL) in a dilution from 10^-1 to 10^-8 were injected intraperitoneally into CF-1 female mice weighing approximately 20g. The LD50 (median lethal dose) for the test organism was calculated from the cumulative mortalities on the sixth day by the using the Reed and Muench procedure (Reed, L.J., and H. Muench, Amer. J. Hygiene, 27, 493 (1938)).
(§3) The above 18 hr culture was diluted in 5% (w/v) hog gastric mucin to obtain 100 times the LD50, and 0.5 mL was injected intraperitoneally into mice. The mice were treated subcutaneously (sc) or orally (po) with a specific amount of the test compound divided equally to be administered at 1 and 5 hr after infection. A group of 10 animals each for at least three dose levels was thus treated, and the deaths were recorded daily for 6 days. Ten mice were left untreated as infection control. ED50 values were calculated from the cumulative mortalities on the sixth day after infection by using the trimmed version of the Logit method ( Hamilton, M.A., R.C. Russo, and R.V. Thurston, Environ. Sci. Technol. 11, 714 (1977)).

[2] = system: Streptococcus pyrogenes CONST; experiment: In vitro antibacterial activity, MIC by agar dilution; format: cell-based; conditions: BHI agar, 35-37°C, 20-24 hours, unit assumed
Procedure, shortened: (§4)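 Agar dilution on BHI agar, inoculated by replicator at approximately 10^4 CFU per spot (1:100 dilution, 1:10 for slow growers). Incubated at about 35–37 °C for 20–24 h. MIC is the lowest concentration giving no growth vs compound-free control; ciprofloxacin as control antibiotic.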

[3] = system: Escherichia coli SS; experiment: as above; format: cell-based; conditions: BHI agar, 35-37°C, 20-24 hours, unit assumed
Procedure, shortened: as §4

[4] = system: Staphylococcus aureus A-5278; experiment: as above; format: cell-based; conditions: BHI agar, 35-37°C, 20-24 hours, unit assumed
Procedure, shortened: as §4

[5] = system: Staphylococcus epidermidis 3519; experiment: as above; format: cell-based; conditions: BHI agar, 35-37°C, 20-24 hours, unit assumed
Procedure, shortened: as §4

[6] = system: Escherichia coli KNK 437; experiment: as above; format: cell-based; conditions: BHI agar, 35-37°C, 20-24 hours, unit assumed
Procedure, shortened: as §4

[7] = system: Streptococcus bovis A5169; experiment: as above; format: cell-based; conditions: BHI agar, 35-37°C, 20-24 hours, unit assumed
Procedure, shortened: as §4

[8] = system: Staphylococcus aureus CMX 553; experiment: as above; format: cell-based; conditions: BHI agar, 35-37°C, 20-24 hours, unit assumed
Procedure, shortened: as §4

[9] = system: Staphylococcus aureus ATCC 6538P; experiment: as above; format: cell-based; conditions: BHI agar, 35-37°C, 20-24 hours, unit assumed
Procedure, shortened: as §4

[10] = system: Escherichia coli JUHL; experiment: as above; format: cell-based; conditions: BHI agar, 35-37°C, 20-24 hours, unit assumed
Procedure, shortened: as §4

[11] = system: Streptococcus pyrogenes 2548 INDUC; experiment: as above; format: cell-based; conditions: BHI agar, 35-37°C, 20-24 hours, unit assumed
Procedure, shortened: as §4

[12] = system: Escherichia coli H560; experiment: as above; format: cell-based; conditions: BHI agar, 35-37°C, 20-24 hours, unit assumed
Procedure, shortened: as §4

[13] = system: Enterococcus faecium ATCC 8043; experiment: as above; format: cell-based; conditions: BHI agar, 35-37°C, 20-24 hours, unit assumed
Procedure, shortened: as §4

[14] = system: Pseudomonas aeruginosa K799/61; experiment: as above; format: cell-based; conditions: BHI agar, 35-37°C, 20-24 hours, unit assumed
Procedure, shortened: as §4

[15] = system: Staphylococcus aureus 1775; experiment: as above; format: cell-based; conditions: BHI agar, 35-37°C, 20-24 hours, unit assumed
Procedure, shortened: as §4

[16] = system: Staphylococcus aureus A5177; experiment: as above; format: cell-based; conditions: BHI agar, 35-37°C, 20-24 hours, unit assumed
Procedure, shortened: as §4

[17] = system: Klebsiella pneumoniae ATCC 8045; experiment: as above; format: cell-based; conditions: BHI agar, 35-37°C, 20-24 hours, unit assumed
Procedure, shortened: as §4

[18] = system: Micrococcus luteus ATCC 9341; experiment: as above; format: cell-based; conditions: BHI agar, 35-37°C, 20-24 hours, unit assumed
Procedure, shortened: as §4

[19] = system: Pseudomonas aeruginosa BMH10; experiment: as above; format: cell-based; conditions: BHI agar, 35-37°C, 20-24 hours, unit assumed
Procedure, shortened: as §4

[20] = system: Streptococcus agalactaciae CMX 508; experiment: as above; format: cell-based; conditions: BHI agar, 35-37°C, 20-24 hours, unit assumed
Procedure, shortened: as §4

[21] = system: Enterobacter aerogenes ATCC 13048; experiment: as above; format: cell-based; conditions: BHI agar, 35-37°C, 20-24 hours, unit assumed
Procedure, shortened: as §4

[22] = system: Acinetobacter calcoaceticus CMX 669; experiment: as above; format: cell-based; conditions: BHI agar, 35-37°C, 20-24 hours, unit assumed
Procedure, shortened: as §4

[23] = system: Pseudomonas aeruginosa K799/WT; experiment: as above; format: cell-based; conditions: BHI agar, 35-37°C, 20-24 hours, unit assumed
Procedure, shortened: as §4

[24] = system: Streptococcus pyrogenes EES61; experiment: as above; format: cell-based; conditions: BHI agar, 35-37°C, 20-24 hours, unit assumed
Procedure, shortened: as §4

[25] = system: Providencia stuartii CMX 640; experiment: as above; format: cell-based; conditions: BHI agar, 35-37°C, 20-24 hours, unit assumed
Procedure, shortened: as §4

[26] = system: Micrococcus luteus ATCC 4698; experiment: as above; format: cell-based; conditions: BHI agar, 35-37°C, 20-24 hours, unit assumed
Procedure, shortened: as §4

[27] = system: Pseudomonas aeruginosa 2862; experiment: as above; format: cell-based; conditions: BHI agar, 35-37°C, 20-24 hours, unit assumed
Procedure, shortened: as §4

[28] = system: Escherichia coli DC-2; experiment: as above; format: cell-based; conditions: BHI agar, 35-37°C, 20-24 hours, unit assumed
Procedure, shortened: as §4

[29] = system: Pseudomonas aeruginosa 5263; experiment: as above; format: cell-based; conditions: BHI agar, 35-37°C, 20-24 hours, unit assumed
Procedure, shortened: as §4

[30] = system: Staphylococcus aureus NCTC 10649; experiment: as above; format: cell-based; conditions: BHI agar, 35-37°C, 20-24 hours, unit assumed
Procedure, shortened: as §4

[31] = system: Pseudomonas aeruginosa A5007; experiment: as above; format: cell-based; conditions: BHI agar, 35-37°C, 20-24 hours, unit assumed
Procedure, shortened: as §4

[32] = system: Staphylococcus aureus 642A; experiment: as above; format: cell-based; conditions: BHI agar, 35-37°C, 20-24 hours, unit assumed
Procedure, shortened: as §4

[33] = system: Pseudomonas cepacia 296I; experiment: as above; format: cell-based; conditions: BHI agar, 35-37°C, 20-24 hours, unit assumed
Procedure, shortened: as §4

[34] = system: Escherichia coli JUHL; experiment: In vivo antibacterial activity in mice (protection from lethal intraperitoneal infection); conditions: 144 h, E. coli JUHL, mice infected intraperitoneally, treated at 1 and 5 hr after infection, cumulative mortalities on the sixth day
Experimental: as §1, §2, §3
The LD50 for Escherichia coli JUHL was determined in a manner similar to that above for S. aureus. The 18 hr cultures of this organism were also prepared for po and sc testing in mice, from which ED50 values were calculated. Positive controls were run with temafloxacin as the test compound, for which ED50 values were also calculated.

## CCC[C@H](N)C(=O)NC1CCN(c2nc3c(-c4ccc(F)cc4F)cc(C(=O)O)c(=O)n3cc2F)C1 (stereo partly drawn) [Example 166, 9-(2,4-Difluorophenyl)-3-fluoro-2-(3-(N-(S)-norvalyl)aminopyrrolidin-1-yl)-6H-6-oxopyrido[1,2-a]pyrimidine-7-carboxylic acid hydrochloride salt]
[1]; po
  ED50: > 24 mg/kg
[1]; sc
  ED50: 8 mg/kg
[2]
  MIC values: 1.56 µg/mL
[3]
  MIC values: 0.05 µg/mL
[4]
  MIC values: 1.56 µg/mL
[5]
  MIC values: 0.78 µg/mL
[6]
  MIC values: 6.2 µg/mL
[7]
  MIC values: 25 µg/mL
[8]
  MIC values: 3.1 µg/mL
[9]
  MIC values: 0.39 µg/mL
[10]
  MIC values: 0.78 µg/mL
[11]
  MIC values: 1.56 µg/mL
[12]
  MIC values: 0.78 µg/mL
[13]
  MIC values: 12.5 µg/mL
[14]
  MIC values: 0.39 µg/mL
[15]
  MIC values: > 100 µg/mL
[16]
  MIC values: 1.56 µg/mL
[17]
  MIC values: 1.56 µg/mL
[18]
  MIC values: 50 µg/mL
[19]
  MIC values: 3.1 µg/mL
[20]
  MIC values: 3.1 µg/mL
[21]
  MIC values: 3.1 µg/mL
[22]
  MIC values: 3.1 µg/mL
[23]
  MIC values: 6.2 µg/mL
[24]
  MIC values: 1.56 µg/mL
[25]
  MIC values: > 100 µg/mL
[26]
  MIC values: 25 µg/mL
[27]
  MIC values: > 100 µg/mL
[28]
  MIC values: 12.5 µg/mL
[29]
  MIC values: > 100 µg/mL
[30]
  MIC values: 0.39 µg/mL
[31]
  MIC values: 6.2 µg/mL
[32]
  MIC values: 1.56 µg/mL
[33]
  MIC values: > 100 µg/mL
[34]; po
  ED50: 25 mg/kg
[34]; sc
  ED50: < 2.5 mg/kg

## C[C@H]1C[C@H](N)CN1c1nc2c(-c3ccc(F)cc3F)cc(C(=O)O)c(=O)n2cc1F [Example 171, 2-((2S,4S)-4-Amino-2-methylpyrrolidin-1-yl)-9-(2,4-difluorophenyl)-3-fluoro-6H-6-oxopyrido[1,2-a]pyrimidine-7-carboxylic acid hydrochloride]
[1]; po
  ED50: 12.8 mg/kg
[1]; sc
  ED50: > 8 mg/kg
[2]
  MIC values: 0.78 µg/mL
[3]
  MIC values: 0.001 µg/mL
[4]
  MIC values: 0.1 µg/mL
[5]
  MIC values: 0.2 µg/mL
[6]
  MIC values: 0.39 µg/mL
[7]
  MIC values: 1.56 µg/mL
[8]
  MIC values: 0.2 µg/mL
[9]
  MIC values: 0.1 µg/mL
[10]
  MIC values: 0.02 µg/mL
[11]
  MIC values: 0.39 µg/mL
[12]
  MIC values: 0.02 µg/mL
[13]
  MIC values: 0.78 µg/mL
[14]
  MIC values: 0.05 µg/mL
[15]
  MIC values: 50 µg/mL
[16]
  MIC values: 0.1 µg/mL
[17]
  MIC values: 0.01 µg/mL
[18]
  MIC values: 3.1 µg/mL
[19]
  MIC values: 0.2 µg/mL
[20]
  MIC values: 0.78 µg/mL
[21]
  MIC values: 0.1 µg/mL
[22]
  MIC values: 0.05 µg/mL
[23]
  MIC values: 0.39 µg/mL
[24]
  MIC values: 0.78 µg/mL
[25]
  MIC values: 6.2 µg/mL
[26]
  MIC values: 0.78 µg/mL
[27]
  MIC values: 50 µg/mL
[28]
  MIC values: 0.78 µg/mL
[29]
  MIC values: 50 µg/mL
[30]
  MIC values: 0.1 µg/mL
[31]
  MIC values: 0.39 µg/mL
[32]
  MIC values: 0.2 µg/mL
[33]
  MIC values: 6.2 µg/mL
[34]; po
  ED50: > 20 mg/kg
[34]; sc
  ED50: 4.8 mg/kg
